Measurements reported in patent US20130156869A1, “PHARMACEUTICAL COMPOSITION FOR THE TREATMENT OF ALZHEIMER'S DISEASE, METHOD FOR PRODUCING SAME AND USE THEREOF” (Funddacao Arnaldo Vieira de Carvalho, priority 2010, published 2013).

Test system: patients diagnosed with Alzheimer's disease
Assay: Mini Mental State Examination (MMSE) performed quarterly in a blinded, placebo-controlled study of lithium microdoses
Type: in vivo, human
Description: Patients clinically diagnosed with Alzheimer's disease by the DSM-IV and NINCDS-ADRDA criteria, and under treatment. The patients were selected by the Mini Mental State Examination (MMSE), which is a questionnaire asked to the patient at each visit, which has a maximum score of 30 points. The Mini-Mental State Examination (MMSE) was designed to be a clinical practice assessment of change in the cognitive status in geriatric patients (Folstein et al, 1975). It examines temporal and spatial orientation, short-term memory (or immediate attention) and recall, calculation, apraxia, and language and visual-spatial skills. It can be used as a screening test for cognitive impairment or as a cognitive assessment of bedside. The Portuguese version of the MMSE (Bertolucci et al, 1994) was considered reliable and adequate for screening and monitoring of ambulatory elderly (Lawrence et al, 2008).
The MMSE includes 11 items, divided into 2 sections. The first requires verbal answers to questions of orientation, memory and attention, the second to questions of reading and writing skills, and it evaluates the skills of appointment, follow verbal and written commands, writing a sentence and copying a drawing (polygons) (Folstein et al, 1975). The cutoff point most often used to indicate a cognitive impairment that deserves further investigation is 24. […] The cutoff point is often adjusted for the education level because a single cut can lose cases among persons with more education, and generate false positives among those with less education. […] Some Brazilian authors studied the measuring characteristics of the scale. Thus, to evaluate the cognitive performance of a population seeking medical screening service of a hospital, Bertolucci applied the MMSE in 530 individuals. We found distinct cutoff points for the diagnosis of cognitive decline, according to the level of education: 13 for illiterates, 18 for low and middle levels of education and 26 for high level of education, with a sensitivity of 82.4%, 75.6% and 80%, and specificity of 97.5%, 96.6% and 95.6%, respectively (Bertolucci et al, 1994). The MMSE was the parameter chosen for inclusion and monitoring of patients of the search for being a test performed on all patients in this clinic and for being a cognitive assessment scale that is practical and useful in the investigation of patients with dementia risk, as in the case of elderly (Almeida, 1998), and it is prescriptive by use and the criteria for dispensing medications adopted by the Ministry of Health. The fact that all medical professionals involved in the evaluation of patients are fully trained and qualified in applying the MMSE was also relevant for this choice. The inclusion of a second test could generate a methodological error that is not measurable. The patients were diagnosed by a neurologist, psychiatrist or geriatrician as suffering from dementia due to Alzheimer's disease, according to the criteria previously mentioned. Patients must present MMSE score equal to or greater than 12 for patients over 4 years of education and greater than or equal to 9 for patients with up to 4 years of education. (Almeida, 1998).
In this preferred embodiment of the invention, the drug tested was the lithium gluconate in a dose of 8.140 mg in 2 mL of solution, which corresponds to 0.28 mg or 0.04 mMol of the metal administered sublingually. Two presentations were used: one containing the lithium gluconate and other containing placebo (anhydrous glucose and purified water). Both presentations were differentiated by a label existing in a group, placebo or lithium, unknown by researchers and by the executors of the MMSE. The patients were selected in a blinded fashion in both groups, with and without stamp by attendance order, being the first with the seal, alternating until the last patient. Formulations were also evaluated with lithium carbonate, respecting the dose of 0.28 mg of metal per dose. […]

## O=C([O-])[C@H](O)[C@@H](O)[C@H](O)[C@H](O)CO.[Li+] [Lithium, lithium gluconate]
61-70 years, F1,62=8.487, p=0.0053, Bonferroni test not significant
  MMSE scores vs control by age group: significant differences in the treatment factor
71-80 years, treatment factor F1,302=29.6, p<0.0001
  MMSE scores vs control by age group: stable maintenance of these values
>80 years, treatment factor F1,225=19.53, p<0.0001
  MMSE scores vs control by age group: better scores on the MMSE compared to control subjects
All participants, six quarters, treatment factor F1,614=65.81, p<0.0001 vs control
  Evolution of MMSE scores in quarterly reviews: maintenance of these scores
First quarter of treatment, 0.28 mg lithium metal per dose, sublingual, P<0.01 vs control
  MMSE score: 20.57±0.66
Quarter 0, immediately before inclusion in the protocol (baseline), n=56, P=0.17 vs control
  MMSE score: 19±0.63
Quarter 5 (end of study), 0.28 mg lithium metal per dose, sublingual, P<0.001 vs control
  MMSE score: 20±0.9
Treated men vs treated women, p=0.4448 and p=0.9786
  Influence of gender on MMSE scores in the treated group: no significant differences in treatment and time factors
